Results as given in patent publication US4288609A, “Quaternary ammonium derivatives of adamantane with antimicrobic activity” (priority 1976, dated 1981).
Like-named read-outs stand apart in the source and are kept apart here.

What was measured:
[1] = test system: all the micro-organisms tested; experiment: Speed of sterilising action, all micro-organisms; format: cell-based; conditions: even with a very low concentration
Experimental: (§1) The strains, inoculants, culture broths and experimental methods are as already seen for calculating the M.I.C. in vitro. The antimicrobic substances were tested at concentrations of 0.1, 0.25, 0.5 and 1 g/l, the contact times taken into consideration are 0, 1, 2.5, 5, 7.5, 10, 15, 30 and 60 minutes.
(§2) The samples which at the 7th day of incubation still had no growth of micro-organisms which could be observed macroscopically and/or microscopically were considered sterile.
(§3) The results are recorded in Table 3 in terms of sterilization time expressed in minutes.

Esch. Coli. SKF 12140 = experiment: M.I.C. in vitro, gram- Esch. Coli (Table 1); format: cell-based, Escherichia Coli; conditions: Escherichia coli, read-out: M.I.C.
Experimental: (§4) The method for evaluating the activity in vitro against bacteria, fungi and protozoa consists in introducing calculated quantities of the substance, the activity of which it is desired to test, into culture media already inoculated with a predetermined number of test germs.
(§5) After 24 or 48 hours of incubation at 30° or 37° C., according to the micro-organism being tested, it is possible to evaluate the growth of the same in the culture broth; in this manner the minimum concentration (M.I.C.) which inhibits the growth of the micro-organisms in vitro is determined.
(§6) In table 1 there are recorded the M.I.C. values in γ/ml of the products subject of the present invention, against certain gram+ and gram- bacterial strains, some of which are pathogenic towards human beings.

[2] = test system: Streptococ. Henclyt. 0203; experiment: M.I.C. in vitro, gram+ Streptococ. Henclyt. (Table 1); format: cell-based; conditions: read-out: M.I.C.
Experimental: as §4, §5, §6

Staph.Aureus Tour = experiment: M.I.C. in vitro, gram+ Staph. Aureus (Table 1); format: cell-based, Staphylococcus Aureus; conditions: Staphylococcus aureus, read-out: M.I.C.
Experimental: as §4, §5, §6

Trich. Foetus ISM 66/23 = experiment: MIC protozoa, Trichomonas foetus (Table 2); format: cell-based; conditions: Tritrichomonas foetus, +10% serum (head); Kupferberg Trichomonas broth with 5% of horse serum; read-out: MIC
Experimental: as §4, §5
Inoculation with Trichomonas vaginalis and Trichomonas foetus, obtained from cultures transplanted every other day to make them lively, was effected in a ratio of 3.5% of the volume of medium used.
(§7) For the fungi Sabourand broth was used as a culture medium, whilst for the protozoa Kupferberg Trichomonas broth with 5% of horse serum was used.

[3] = test system: Candida Pseudotrop. ATCC 2512; experiment: MIC yeasts, Candida pseudotropicalis (Table 2); format: cell-based; conditions: Candida, Sabourand broth, read-out: MIC
Experimental: as §4, §5
Inoculation with Candida albicans or Candida pseudotropicalis was made by diluting cultures grown for 24 h at 30° C. (cellular density inoculated 10^3 /ml).
as §7

Pseudomonas Aeruginosa = experiment: Antibacterial activity in vivo with topical treatment (Table 5); design: species or system female CF1 albino mice; conditions: for animals alive on the 15th day / animals dead on the 15th day: 10 animals; for % survivors: topical, 15th day; for efficacy in vivo (in words): other concentrations considered
Experimental: After their backs have been shaved, female CF1 albino mice weighing 18-22 g are scorched (under ether anaesthetic) for 15 seconds with a pad of brass previously immersed in boiling water (7-8% of the body surface). After 90 minutes there is applied to the scorched area 0.1 ml of a suspension of Pseudomonas Aeruginosa bacteria having 15% transmittance at 650 nm. The bacterial strain in question produces a high incidence of mortality, induced by septicemic diffusion from the point of infection. After 90 minutes, with the aid of a glass rod suitably flattened at one end, the preparation containing a known concentration of the compound under examination is applied locally. The treatment is continued for a total of six days (once per day). On the fifteenth day the percentage of survivors to the tested doses in recorded.
The carrier used for applying the compounds under examination is an aqueous 0.75% solution of carboxymethyl-cellulose. The concentrations of the compounds tested are 2, 1, 0.5 and 0.25% by weight.

[4] = test system: Trichophyton Mentagrophytes; experiment: Topical activity upon dermatophytis from Trichophyton in cavies (Table 6); format: in vivo, Albino cavies; conditions: in vivo
Experimental: Albino cavies of 250-300 g are infected, after depilation and scarification of a circular area of dorsal skin upon which there are supplied 0.1 ml of a suspension of microconidia of Trichophyton Mentagrophytes from the Pasteur Institute collection, obtained from a culture of 15 days upon Saboureaud agar. 24 Hours after infection topical treatment is started and is continued for two weeks (once per day).
The compounds to be tested are dissolved or suspended at the desired concentration, in a water-alcohol mixture (75/25 v/v) containing 0.75% by weight of carboxymethyl-cellulose (CMC). […] Each single application is carried out using 0.25 ml of the suspension or solution obtained as described above.
Fourteen days after infection the lesions are assessed. Assessment is carried out by attributing index numbers depending upon the seriousness of the lesions formed, as follows:
The substances under examination were tested at concentrations of 5 and 2.5% by weight.

Pseudom.Aer. ATCC 1014 = experiment: M.I.C. in vitro, gram- Pseudom. Aer. (Table 1); format: cell-based, Pseudomonas Aeruginosa; conditions: Pseudomonas aeruginosa, read-out: M.I.C.
Experimental: as §4, §5, §6

[5] = test system: Candida Albicans SKF 2270; experiment: Speed of sterilising action, Candida Albicans (Table 3); format: cell-based
Experimental: as §1, §2, §3

[6] = test system: Nicrosporum Canis ATCC 11621; experiment: MIC mildews, Microsporum canis (Table 2); format: cell-based; conditions: Microsporum canis, Sabourand broth, read-out: MIC
Experimental: as §4, §5
(§8) Inoculation with Trichophyton mentagrophytes and Microsporum canis was effected in a ratio of 1% of the volume of medium used.
as §7

Klens. Pneum. ISM = experiment: M.I.C. in vitro, gram- Klens. Pneum. (Table 1); format: cell-based; conditions: read-out: M.I.C.
Experimental: as §4, §5, §6

[7] = test system: Trych. Mentagr. 1st.Pastuer; experiment: MIC mildews, Trichophyton mentagrophytes (Table 2); format: cell-based; conditions: Trichophyton mentagrophytes, Sabourand broth, read-out: MIC
Experimental: as §4, §5, §8, §7

[8] = test system: Escherichia Coli SKF 12140; experiment: Speed of sterilising action, Escherichia Coli (Table 3); format: cell-based
Experimental: as §1, §2, §3

[9] = Acute oral toxicity in mice (Table 4); conditions: mouse, in vivo, po, LD50, oral, mice, 14 days
Experimental: The substances were administered orally to groups of 10 female mice CF1 of average weight of about 20 grams, in aqueous solution and in such way that the total volume administered would be in each case 1 ml/100 g of weight.

With `CCCCCCCCCCCC[N+](C)(C)CCOC(=O)C12CC3CC(CC(C3)C1)C2` [Example 4] the “sterilising action (in words)” value [1] was “swift sterilising action on all the micro-organisms tested”, the MIC (Esch. Coli. SKF 12140; +10% serum) was 100 µg/mL and the MIC (Esch. Coli. SKF 12140; without serum) was 2 µg/mL. It also gave an MIC ([2]; +10% serum) of 0.3 µg/mL, an MIC ([2]; without serum) of less than 0.1 µg/mL and an MIC (Staph.Aureus Tour; +10% serum) of 5 µg/mL. For the same molecule, the MIC (Staph.Aureus Tour; without serum) was less than 0.1 µg/mL, the MIC (Trich. Foetus ISM 66/23) was 5 µg/mL and the MIC ([3]; ATCC2512, +10% serum) was 50 µg/mL. For the same molecule, the MIC ([3]; ATCC2512, without serum) was 0.1 µg/mL, the “animals alive on the 15th day” value (Pseudomonas Aeruginosa; 0.25% by weight) was 4 and the “animals dead on the 15th day” value (Pseudomonas Aeruginosa; 0.25% by weight) was 6. For the same molecule, the “% survivors” value (Pseudomonas Aeruginosa; 0.25% by weight) was 40%, the “animals alive on the 15th day” value (Pseudomonas Aeruginosa; 0.5% by weight) was 6 and the “animals dead on the 15th day” value (Pseudomonas Aeruginosa; 0.5% by weight) was 4. For the same molecule, the “% survivors” value (Pseudomonas Aeruginosa; 0.5% by weight) was 60%, the “animals alive on the 15th day” value (Pseudomonas Aeruginosa; 1% by weight) was 6 and the “animals dead on the 15th day” value (Pseudomonas Aeruginosa; 1% by weight) was 4. For the same molecule, the “% survivors” value (Pseudomonas Aeruginosa; 1% by weight) was 60%, the “animals alive on the 15th day” value (Pseudomonas Aeruginosa; 2% by weight) was 7 and the “animals dead on the 15th day” value (Pseudomonas Aeruginosa; 2% by weight) was 3. The “% survivors” value (Pseudomonas Aeruginosa; 2% by weight) was 70%, the “efficacy in vivo (in words)” value (Pseudomonas Aeruginosa) was “secure efficacy” and the “in vivo activity against Trichophyton Mentagrophytes (in words)” value [4] was “excellent "in vivo" activity against Trichophyton Mentagrophytes”. For the same molecule, the MIC (Pseudom.Aer. ATCC 1014; ATCC1014, +10% serum) was 100 µg/mL, the MIC (Pseudom.Aer. ATCC 1014; ATCC1014, without serum) was 10 µg/mL and the sterilization time ([5]; 0.1 g/l) was 30 min. For the same molecule, the sterilization time ([5]; 0.25 g/l) was 10 min, the sterilization time ([5]; 0.5 g/l) was 5 min and the sterilization time ([5]; 1 g/l) was 1 min. The MIC ([6]; ATCC11621, +10% serum) was 20 µg/mL, the MIC ([6]; ATCC11621, without serum) was 0.1 µg/mL and the MIC (Klens. Pneum. ISM; +10% serum) was 100 µg/mL. It also gave an MIC (Klens. Pneum. ISM; without serum) of 2 µg/mL, an MIC ([7]; +10% serum) of 5 µg/mL and an MIC ([7]; without serum) of 0.1 µg/mL. For the same molecule, the sterilization time ([8]; 0.1 g/l) was 60 min, the sterilization time ([8]; 0.25 g/l) was 60 min and the sterilization time ([8]; 0.5 g/l) was 30 min. For the same molecule, the sterilization time ([8]; 1 g/l) was 10 min and the LD50 at 336 h [9] was 820 mg/kg.

With `CCCCCCCCCCCC[N+](C)(C)CCNC(=O)C12CC3CC(CC(C3)C1)C2` [Example 8] the “sterilising action (in words)” value [1] was “swift sterilising action on all the micro-organisms tested”, the MIC (Esch. Coli. SKF 12140; +10% serum) was 100 µg/mL and the MIC (Esch. Coli. SKF 12140; without serum) was 2 µg/mL. The MIC ([2]; +10% serum) was 1 µg/mL, the MIC ([2]; without serum) was less than 0.1 µg/mL and the MIC (Staph.Aureus Tour; +10% serum) was 5 µg/mL. For the same molecule, the MIC (Staph.Aureus Tour; without serum) was less than 0.1 µg/mL, the MIC (Trich. Foetus ISM 66/23) was 1 µg/mL and the MIC ([3]; ATCC2512, +10% serum) was 20 µg/mL. For the same molecule, the MIC ([3]; ATCC2512, without serum) was less than 0.1 µg/mL, the “animals alive on the 15th day” value (Pseudomonas Aeruginosa; 0.25% by weight) was 3 and the “animals dead on the 15th day” value (Pseudomonas Aeruginosa; 0.25% by weight) was 7. The “% survivors” value (Pseudomonas Aeruginosa; 0.25% by weight) was 30%, the “animals alive on the 15th day” value (Pseudomonas Aeruginosa; 0.5% by weight) was 6 and the “animals dead on the 15th day” value (Pseudomonas Aeruginosa; 0.5% by weight) was 5. The “% survivors” value (Pseudomonas Aeruginosa; 0.5% by weight) was 60%, the “animals alive on the 15th day” value (Pseudomonas Aeruginosa; 1% by weight) was 6 and the “animals dead on the 15th day” value (Pseudomonas Aeruginosa; 1% by weight) was 4. For the same molecule, the “% survivors” value (Pseudomonas Aeruginosa; 1% by weight) was 60%, the “animals alive on the 15th day” value (Pseudomonas Aeruginosa; 2% by weight) was 7 and the “animals dead on the 15th day” value (Pseudomonas Aeruginosa; 2% by weight) was 3. For the same molecule, the “% survivors” value (Pseudomonas Aeruginosa; 2% by weight) was 70%, the “efficacy in vivo (in words)” value (Pseudomonas Aeruginosa) was “secure efficacy” and the “in vivo activity against Trichophyton Mentagrophytes (in words)” value [4] was “excellent "in vivo" activity against Trichophyton Mentagrophytes”. For the same molecule, the MIC (Pseudom.Aer. ATCC 1014; ATCC1014, +10% serum) was 50 µg/mL, the MIC (Pseudom.Aer. ATCC 1014; ATCC1014, without serum) was 10 µg/mL and the sterilization time ([5]; 0.1 g/l) was 60 min. For the same molecule, the sterilization time ([5]; 0.25 g/l) was 15 min, the sterilization time ([5]; 0.5 g/l) was 2.5 min and the sterilization time ([5]; 1 g/l) was 2.5 min. It also gave an MIC ([6]; ATCC11621, +10% serum) of 20 µg/mL, an MIC ([6]; ATCC11621, without serum) of 0.1 µg/mL and an MIC (Klens. Pneum. ISM; +10% serum) of 50 µg/mL. The MIC (Klens. Pneum. ISM; without serum) was 5 µg/mL, the MIC ([7]; +10% serum) was 5 µg/mL and the MIC ([7]; without serum) was 0.1 µg/mL. It also gave a sterilization time ([8]; 0.1 g/l) of 60 min, a sterilization time ([8]; 0.25 g/l) of 60 min and a sterilization time ([8]; 0.5 g/l) of 10 min. For the same molecule, the sterilization time ([8]; 1 g/l) was 7.5 min and the LD50 at 336 h [9] was 760 mg/kg.
